Assay results reported in EP4458353A1, “ANTICARIOGENIC SYNERGETIC COMPOSITION FOR ORAL CARE” (SkyLab AG, priority 2023, dated 2024).
Where two headings read alike, the source gives them in different places.

Legend:
Type in all cases: cell-based
Streptococcus mutans [1] = experiment: Minimum inhibitory concentration (MIC), serial two-fold dilution with resazurin test; details: for MIC: Streptococcus mutans
Streptococcus sobrinus [2] = experiment: Minimum biofilm inhibitory concentration (MBIC), crystal violet staining; details: S. sobrinus; for MBIC in indicvdual replicates Replicate 1 / MBIC in indicvdual replicates Replicate 2 / MBIC in indicvdual replicates Replicate 3 / MBIC in indicvdual replicates Replicate 4 / MBIC in indicvdual replicates Replicate 5: 24 h incubation; for MBIC Median value: median of 5 replicates
Procedure: (§1) Group of examples No 4 - 6. Anti-biofilm activity of the substance or of the composition of substances was assessed from minimum biofilm inhibitory concentration (MBIC) and from the rate of biofilm formation on hydroxyapatite disks.
(§2) Reference strains Streptococcus mutans and S. Sobrinus were used as the bacterial models.
(§3) Example No 4. MBIC as the measure of the substance effect on the bacterial biofilm is equal to minimum concentration inhibiting the biofilm formation or disruption of already formed biofilm during 24 hour incubation.
(§4) MBIC of individual components of the composition, specifically, naringenin, guava leaf CO2 extract, and enzymes lysozyme and labiase can be determined according to the procedure: • 1) All stages of nutritive medium preparation, preparation and incubation of bacterial cultures in 96-well microtiter plates with the test composition of the substances added into nutritive medium were as described in Example 1. • 2) All controls for the culture growth, for purity of nutritive medium and for solvents were as described in Example 1. • 3) Incubate the plates at 37 °C for 24 ± 4 h without the use the orbital shaker. • 4) Stain the bacterial biofilm accumulated on bottom of the plate wells with crystal violet. For this purpose remove the planktonic culture from the plate wells after 24 h incubation and wash with two portions of phosphate-buffered saline (PBS, pH 7.4) to remove remaining planktonic culture. Then dry the plate for 12-15 hours. Add 100 µL of 0.5% crystal violet solution (Sigma-Aldrich, USA), dissolved in 96% ethanol followed by incubation for 20 minutes. After removal of crystal violet solution from the wells wash the plate with 3-4 portions of PBS. After drying add […] of 96% ethanol into the wells to elute the crystal violet, which has bound to the biofilm. • 5) Shake the plate on the orbital shaker for 2 minutes at 37 °C and then measure optical density (OD) at the wavelength of 550nm using multimodal microplate reader against the blank (the well, where the sterile medium LB was incubated and then exposed to all staining manipulations). Since the serial dilution method with 2-fold dilution steps is used for MBIC determination, the difference between the adjacent dilution is considered as non-significant, and MBIC is defined as the median value calculated for 5 independent biological replicates of the experiment. • 6) The following concentrations were tested: naringenin and guava leaf extract at concentrations 1.6, 0.8, 0.4, 0.2, 0.1, 0.05 mg/mL; lysozyme and labiase at concentrations 4.0, 2.0, 1.0, 0.5, 0.25, 0.125 mg/mL. Well-known antibacterial components were used as controls: chlorohexidine bigluconate at concentrations 64, 32, 16, 8, 4 µg/mL; zinc gluconate at concetrations 5.0, 2.5, 1.25, 0.6, 0.3, 0.15 mg/mL.

Streptococcus mutans [3] = experiment: as above; details: S. mutans; for MBIC in indicvdual replicates Replicate 1 / MBIC in indicvdual replicates Replicate 2 / MBIC in indicvdual replicates Replicate 3 / MBIC in indicvdual replicates Replicate 4 / MBIC in indicvdual replicates Replicate 5: 24 h incubation; for MBIC Median value: median of 5 replicates
Procedure: as §1, §2, §3, §4

Streptococcus sobrinus [4] = experiment: Minimum inhibitory concentration (MIC), serial two-fold dilution with resazurin test; details: for MIC: Streptococcus sobrinus
[5] = 24 h, read-out: MIC value in individual replicate Replicate 1
[6] = 24 h, read-out: MIC value in individual replicate Replicate 2
[7] = 24 h, read-out: MIC value in individual replicate Replicate 3
[8] = 24 h, read-out: MIC value in individual replicate Replicate 4
[9] = 24 h, read-out: MIC value in individual replicate Replicate 5

Row | Compound | MBIC in indicvdual replicates Replicate 1 (Streptococcus sobrinus [2]) | MBIC in indicvdual replicates Replicate 2 (Streptococcus sobrinus [2]) | MBIC in indicvdual replicates Replicate 3 (Streptococcus sobrinus [2]) | MBIC in indicvdual replicates Replicate 4 (Streptococcus sobrinus [2]) | MBIC in indicvdual replicates Replicate 5 (Streptococcus sobrinus [2]) | MBIC Median value (Streptococcus sobrinus [2]) | MBIC in indicvdual replicates Replicate 1 (Streptococcus mutans [3]) | MBIC in indicvdual replicates Replicate 2 (Streptococcus mutans [3]) | MBIC in indicvdual replicates Replicate 3 (Streptococcus mutans [3]) | MBIC in indicvdual replicates Replicate 4 (Streptococcus mutans [3]) | MBIC in indicvdual replicates Replicate 5 (Streptococcus mutans [3]) | MBIC Median value (Streptococcus mutans [3]) | further results
1 | zinc gluconate | 5.0 mg/mL | 5.0 mg/mL | 2.5 mg/mL | 2.5 mg/mL | 2.5 mg/mL | 2.5 mg/mL | 1.25 mg/mL | 1.25 mg/mL | 0.6 mg/mL | 0.6 mg/mL | 0.6 mg/mL | 0.6 mg/mL | MIC value in individual replicate Replicate 1 (Streptococcus mutans [1]; S. mutans, 24 h at 37 °C): 0.6 mg/mL; MIC value in individual replicate Replicate 2 (Streptococcus mutans [1]; S. mutans, 24 h at 37 °C): 0.6 mg/mL; MIC value in individual replicate Replicate 3 (Streptococcus mutans [1]; S. mutans, 24 h at 37 °C): 0.3 mg/mL; MIC value in individual replicate Replicate 4 (Streptococcus mutans [1]; S. mutans, 24 h at 37 °C): 0.3 mg/mL; MIC value in individual replicate Replicate 5 (Streptococcus mutans [1]; S. mutans, 24 h at 37 °C): 0.3 mg/mL; MIC Median value (Streptococcus mutans [1]; S. mutans, median of 5 replicates): 0.3 mg/mL; MIC value in individual replicate Replicate 1 (Streptococcus sobrinus [4]; S. sobrinus, 24 h at 37 °C): 5.0 mg/mL; MIC value in individual replicate Replicate 2 (Streptococcus sobrinus [4]; S. sobrinus, 24 h at 37 °C): 5.0 mg/mL; MIC value in individual replicate Replicate 3 (Streptococcus sobrinus [4]; S. sobrinus, 24 h at 37 °C): 5.0 mg/mL; MIC value in individual replicate Replicate 4 (Streptococcus sobrinus [4]; S. sobrinus, 24 h at 37 °C): 5.0 mg/mL; MIC value in individual replicate Replicate 5 (Streptococcus sobrinus [4]; S. sobrinus, 24 h at 37 °C): 5.0 mg/mL; MIC Median value (Streptococcus sobrinus [4]; S. sobrinus, median of 5 replicates): 5.0 mg/mL
2 | N=C(NCCCCCCNC(=N)NC(=N)Nc1ccc(Cl)cc1)NC(=N)Nc1ccc(Cl)cc1 [Chlorohexidine bigluconate, chlorohexidine bigluconate] | 0.004 mg/mL | 0.004 mg/mL | 0.008 mg/mL | 0.004 mg/mL | 0.004 mg/mL | 0.004 mg/mL | 0.008 mg/mL | 0.008 mg/mL | 0.008 mg/mL | 0.008 mg/mL | 0.004 mg/mL | 0.008 mg/mL | MIC (Streptococcus mutans [1]; [5]): 8 µg/mL; MIC (Streptococcus mutans [1]; [6]): 8 µg/mL; MIC (Streptococcus mutans [1]; [7]): 8 µg/mL; MIC (Streptococcus mutans [1]; [8]): 8 µg/mL; MIC (Streptococcus mutans [1]; [9]): 8 µg/mL; MIC (Streptococcus mutans [1]; read-out: MIC Median value): 8 µg/mL; MIC (Streptococcus sobrinus [4]; [5]): 4 µg/mL; MIC (Streptococcus sobrinus [4]; [6]): 4 µg/mL; MIC (Streptococcus sobrinus [4]; [7]): 4 µg/mL; MIC (Streptococcus sobrinus [4]; [8]): 8 µg/mL; MIC (Streptococcus sobrinus [4]; [9]): 4 µg/mL; MIC (Streptococcus sobrinus [4]; read-out: MIC Median value): 4 µg/mL
